Patent US8759339B2, “Pyrrolo[2,1-c][1,4]naphthodiazepine linked piperazine compounds and a process for the preparation thereof” (Council of Scientific & Industrial Research, priority 2011, dated 2014)
Where two headings read alike, the source gives them in different places.

Columns and labels:
L-6 = test: In vitro anticancer activity, MTT assay; assay type: cell-based; conditions: skeletal cancer cell line; MTT, 48 h continuous drug exposure
Experimental: (§1) In vitro biological activity studies were carried out at the pharmacology division, IICT, Hyderabad. The compounds were evaluated for in vitro anticancer activity against eight tumour cell lines derived from […] cancer types (breast, lung, liver, skeletal, kidney, prostrate, small intestine) as shown in Table 2. For each compound, dose response curves for each cell line were measured at a minimum of five concentrations at 10 fold dilutions. A protocol of 48 h continuous drug exposure was used and a MTT assay was used to estimate cell viability or growth. The concentration causing 50% inhibition (IC50) compared with the control was calculated. Some of the compounds have been evaluated for their in vitro cytotoxicity in eight cell lines from seven human cancer types. The results are expressed as IC50 determined relative to that of untreated control cells (Table-2).

[1] = test system: IEC-6 small intestine cell line; test: In vitro anticancer activity, MTT assay; assay type: cell-based; conditions: for in-vitro cytotoxicity in small intestine cancer cell line (IEC-6): result in words
Experimental: as §1

[2] = test system: L-6 skeletal cancer cell line; test: In vitro anticancer activity, MTT assay; assay type: cell-based; conditions: result in words
Experimental: as §1

[3] = In vitro anticancer activity, MTT assay; assay type: cell-based; conditions: kidney cancer cell line, MTT, 48 h continuous drug exposure
Experimental: as §1

[4] = test system: COS-1 kidney cancer cell line; test: In vitro anticancer activity, MTT assay; assay type: cell-based; conditions: for in-vitro cytotoxicity in kidney cancer cell line (COS-1): result in words
Experimental: as §1

[5] = test system: MCF7 breast cancer cell line; test: In vitro anticancer activity, MTT assay; assay type: cell-based, human; conditions: for IC50: breast cancer cell line, MTT, 48 h continuous drug exposure; for in-vitro cytotoxicity in breast cancer cell line (MCF-7): result in words
Experimental: as §1

[6] = test system: HEPG2 liver cancer cell line; test: In vitro anticancer activity, MTT assay; assay type: cell-based, human; conditions: for in-vitro cytotoxicity in liver cancer cell line (HEPG2): result in words
Experimental: as §1

[7] = test system: NCIH460 large cell lung cancer cell line; test: In vitro anticancer activity, MTT assay; assay type: cell-based, human; conditions: for IC50: large cell lung cancer cell line, MTT, 48 h continuous drug exposure; for in-vitro cytotoxicity in large cell lung cancer cell line (NCIH460): result in words
Experimental: as §1

[8] = test system: A549 lung cancer cell line; test: In vitro anticancer activity, MTT assay; assay type: cell-based, human; conditions: for in-vitro cytotoxicity in lung cancer cell line (A549): result in words
Experimental: as §1

[9] = test system: PC-3 prostrate cancer cell line; test: In vitro anticancer activity, MTT assay; assay type: cell-based, human; conditions: for IC50: prostrate cancer cell line, MTT, 48 h continuous drug exposure; for in-vitro cytotoxicity in prostrate cancer cell line (PC-3): result in words
Experimental: as §1

calf thymus DNA (CT-DNA) = test: Thermal denaturation studies with duplex-form calf thymus DNA; assay type: binding; conditions: [PND]/[DNA] molar ratio 1:5, CT-DNA 100 μM, ligand 20 μM, aqueous sodium phosphate buffer pH 7; for ΔTm after incubation at 37° C. for 0 hr: 0 hr at 37° C.; for ΔTm after incubation at 37° C. for 18 hrs: 18 hrs at 37° C.
Experimental: Compounds have been subjected to thermal denaturation studies with duplex-form calf thymus DNA (CT-DNA) using an modification of a reported procedure (Newman, M. S. Carcinog-compr. Surv. 1976, 1, 203; (b) Hecht, S. S.; Loy, M.; Hoffman, Carcinog-compr. Surv. 1976, 1, 325). Working solutions in aqueous buffer (10 mM NaH2PO4/Na2HPO4, 1 mM Na2EDTA, pH 7.00+0.01) containing CT-DNA (100 μm in phosphate) and the PND (pyrrolo naphtha diazepine) (20 μm) have been prepared by addition of concentrated PND (pyrrolo naphtha diazepine) solutions in DMSO to obtain a fixed [PND]/[DNA] molar ratio of 1:5. The DNA-PND (pyrrolo naphtha diazepine) solutions have been incubated at 37° C. for 0 and 18 h prior to analysis. Samples have been monitored at 260 nm using a Beckman DU-800 spectrophotometer fitted with high performance temperature controller, and heated at 1° C. min in the 40-110° C. range. DNA helix→coil transition temperatures (Tm) have been obtained from the maxima in the d(A260)/dT derivative plots. Drug-induced alterations in DNA melting behavior are given by: ΔTm=Tm(DNA+PND)−Tm(DNA alone), where the Tm value for the PND-free CT-DNA is 69.1±0.01.
The DNA binding activity for these novel substituted piperazine linked pyrrolo naphtho diazepine hybrids has been examined by thermal denaturation studies using calf thymus (CT) DNA. […] The data for some of the compounds are included in Table 1 for comparison.

[10] = small intestine cell line, MTT, 48 h continuous drug exposure, read-out: IC50 IEC-6
[11] = liver cancer cell line, MTT, 48 h continuous drug exposure, read-out: IC50 HEPG2
[12] = lung cancer cell line, MTT, 48 h continuous drug exposure, read-out: IC50 A549

Row | Molecule | IC50 (L-6) [µM] | in-vitro cytotoxicity in small intestine cancer cell line (IEC-6) [1] | in-vitro cytotoxicity in skeletal cancer cell line (L-6) [2] | in-vitro cytotoxicity in kidney cancer cell line (COS-1) [4] | in-vitro cytotoxicity in breast cancer cell line (MCF-7) [5] | in-vitro cytotoxicity in liver cancer cell line (HEPG2) [6] | in-vitro cytotoxicity in large cell lung cancer cell line (NCIH460) [7] | in-vitro cytotoxicity in lung cancer cell line (A549) [8] | in-vitro cytotoxicity in prostrate cancer cell line (PC-3) [9] | ΔTm after incubation at 37° C. for 0 hr (calf thymus DNA (CT-DNA)) [°C] | ΔTm after incubation at 37° C. for 18 hrs (calf thymus DNA (CT-DNA)) [°C] | IC50 [1, 10] [µM] | IC50 ([3]; read-out: IC50 COS-1) [µM] | IC50 [5] [µM] | IC50 [6, 11] [µM] | IC50 [7] [µM] | IC50 [8, 12] [µM] | IC50 [9] [µM] | further results
1 | COc1cc2cc3c(cc2cc1OCCN1CCN(c2ccccn2)CC1)C(=O)N1CCC[C@H]1C=N3 [23a, 9-Methoxy-8-(2-[4-(2-pyridyl)piperazino]ethoxy)-(13aS)-1,2,3,13a-tetrahydro-5H-pyrrolo[2,1-c][1,4]naphthodiazepin-5-one] | 0.74 | exhibiting in-vitro cytotoxicity | exhibiting in-vitro cytotoxicity | exhibiting in-vitro cytotoxicity | exhibiting in-vitro cytotoxicity | exhibiting in-vitro cytotoxicity | exhibiting in-vitro cytotoxicity | exhibiting in-vitro cytotoxicity | exhibiting in-vitro cytotoxicity | 5.0 | 6.8 | – | – | – | – | – | – | – | IC50 ([1]; IEC-6, range over the listed compounds, exposure period of at least 48 hrs, read-out: IC50 against small intestine cancer cell lines): 0.01 to 5.84 µM; IC50 ([1]; IEC-6, small intestine cell line, MTT, 48 h continuous drug exposure, read-out: IC50 IEC-6): 0.01 µM; IC50 ([3]; COS-1): 4.32 µM; IC50 ([4]; COS-1, range over the listed compounds, exposure period of at least 48 hrs, read-out: IC50 against kidney cancer cell lines): 0.8 to 4.32 µM; IC50 ([5]; Homo sapiens, MCF7): 0.02 µM; IC50 ([6]; Homo sapiens, HepG2, liver cancer cell line, MTT, 48 h continuous drug exposure, read-out: IC50 HEPG2): 0.04 µM; IC50 ([6]; Homo sapiens, HepG2, range over the listed compounds, exposure period of at least 48 hrs, read-out: IC50 against liver cancer cell lines): 0.02 to 7.32 µM; IC50 ([7]; Homo sapiens, NCI-H460): 0.11 µM; IC50 ([8]; Homo sapiens, A549, lung cancer cell line, MTT, 48 h continuous drug exposure, read-out: IC50 A549): 1.99 µM; IC50 ([8]; Homo sapiens, A549, range over the listed compounds, exposure period of at least 48 hrs, read-out: IC50 against lung cancer cell lines): 0.02 to 11.9 µM; IC50 ([9]; Homo sapiens): 0.1 µM
2 | 8-Methoxy-9-(2-chloroethoxy)-(13aS)-1,2,3,13a-tetrahydro-5H-pyrrolo[2,1-c][1,4]naphthodiazepine-5-one [1a] | 1.08 | exhibiting in-vitro cytotoxicity | exhibiting in-vitro cytotoxicity | exhibiting in-vitro cytotoxicity | exhibiting in-vitro cytotoxicity | exhibiting in-vitro cytotoxicity | exhibiting in-vitro cytotoxicity | exhibiting in-vitro cytotoxicity | exhibiting in-vitro cytotoxicity | 6.2 | 7.6 | 0.02 | 3.06 | 0.05 | 0.52 | 0.3 | 0.02 | 0.39 | –
3 | COc1cc2cc3c(cc2cc1OCCN1CCN(Cc2ccc4c(c2)OCO4)CC1)N=C[C@@H]1CCCN1C3=O [7a, 8-Methoxy-9-(2-[4-(1,3-benzodioxol-5-ylmethyl)piperazino]ethoxyl)(13aS)-1,2,3,13a-tetrahydro-5H-pyrrolo[2,1-c][1,4]naphthodiazepin-5-one] | 0.77 | exhibiting in-vitro cytotoxicity | exhibiting in-vitro cytotoxicity | exhibiting in-vitro cytotoxicity | exhibiting in-vitro cytotoxicity | exhibiting in-vitro cytotoxicity | exhibiting in-vitro cytotoxicity | exhibiting in-vitro cytotoxicity | exhibiting in-vitro cytotoxicity | 4.9 | 6.5 | 0.05 | 2.58 | 0.2 | 0.11 | 0.08 | 2.21 | 0.64 | –
4 | COc1cc2cc3c(cc2cc1OCCN1CCN(c2ccccc2)CC1)N=C[C@@H]1CCCN1C3=O [8a, 8-Methoxy-9-[2-(4-phenylpiperazino)ethoxy]-(13aS)-1,2,3,13a-tetrahydro-5H-pyrrolo[2,1-c][1,4]naphthodiazepin-5-one] | 1.01 | exhibiting in-vitro cytotoxicity | exhibiting in-vitro cytotoxicity | exhibiting in-vitro cytotoxicity | exhibiting in-vitro cytotoxicity | exhibiting in-vitro cytotoxicity | exhibiting in-vitro cytotoxicity | exhibiting in-vitro cytotoxicity | exhibiting in-vitro cytotoxicity | 5.1 | 6.9 | 0.14 | 6.39 | 1.5 | 0.47 | 0.43 | 7.42 | 1.6 | –
